Source: US7157256B2, “Method for producing para-hydroxystyrene and other multifunctional aromatic compounds using two-phase extractive fermentation” (E. I. du Pont de Nemours and Company, priority 2003, dated 2007)
“And” between values parts separate entries of the source, which are not always exact repeats. Equal entries are not always repeated.

Assays:
Assay type in all cases: cell-based
P. putida NCIMB 9866 = experiment: Effect of pHCA on the growth of Pseudomonas putida NCIMB 9866; conditions: pHCA 25 g/L
Procedure: (§1) Liquid cultures of these strains were grown in 10 mL of LB medium containing 0.25% glucose and 10 mM MgSO4 in 50 mL screw-capped, glass tubes at 30° C. and 200 rpm in an incubator shaker. In all subsequent media, pHCA was added from a 60 g/L stock solution, which was adjusted to pH 7.0 using KOH and then filter-sterilized. Samples of each culture were streaked on LB agar plates containing 0.25% glucose, 10 mM MgSO4 and 30 g/L pHCA and grown at 30° C. Individual colonies taken from these plates were grown to stationary phase at 30° C. in 10 mL of LB medium containing 0.5% glucose, 10 mM MgSO4 and 25 g/L pHCA in 50 mL screw-capped, glass tubes. These stationary phase cultures were diluted 1:25 in fresh LB medium containing 0.5% glucose, 10 mM MgSO4 and either 0 or 25 g/L pHCA and grown in 50 mL screw-capped, glass tubes at 30° C. and 200 rpm in an incubator shaker. Cell growth in these cultures was monitored by taking aliquots and measuring the OD at 600 nm of the culture or dilutions of the culture, which were made with LB medium. These OD measurements were used to calculate the doubling time and growth rate as a percentage of growth observed in test medium without pHCA.

E. coli TY1 (DGL430) = experiment: Effect of pHCA and pHS on growth and fermentation of E. coli, shake flasks
Procedure: This study was done using E. coli TY1 (DGL430), a tyrosine overproducing strain obtained from OmniGene Bioproducts, Inc. (Cambridge, Mass.). This strain also produces phenylalanine. The seed culture of this strain was propagated in a medium consisting of MgSO4.7H2O (0.5 g/L), (NH4)2SO4 (4 g/L), MOPS (20.9 g/L) and 10 mL of phosphate solution. The pH of the seed medium was adjusted to pH 6.8 and then the medium was steam-sterilized. The phosphate solution contained KH2PO4 (57.3 g/L) and K2HPO4 (110.2 g/L) and was adjusted to pH 6.8. The following solutions were then aseptically added to the seed medium to give the final concentration given in parentheses: thiamine (1 mg/L), glucose (1 g/L), lactose (15 g/L), 5 mL of a trace element solution, and tetracycline (5 mg/L). The trace element solution contained citric acid (10 g/L), CaCl2.2H2O (1.5 g/L), FeSO4.7H2O (5 g/L), ZnSO4.7H2O (0.39 g/L) and CuSO4.5H2O (0.38 g/L). The seed medium was inoculated from a frozen pre-seed culture and was grown in 250 mL baffled flasks in an Innova 4000 incubator shaker (New Brunswick Scientific Co., Edison, N.J.), incubated at 35° C. and 300 rpm for 12–16 h. One milliliter of this seed culture was used to inoculate each of the test cultures.
The test medium was 50 mL of an aqueous solution containing: (NH4)2SO4 (4 g), 1 mL of phosphate solution, MgSO4.7H2O (0.5 g), and MOPS (20.9 g), with the pH adjusted to 7.0. After sterilization of this medium, thiamine (1 mg/L), 5 mL of trace element solution, glucose (2 g/L), lactose (15 g/L), IPTG (0.5 mM), and tetracycline (10 mg/L) were aseptically added to give the final concentration given in parentheses. The 250 mL baffled flasks containing 50 mL of the test medium were inoculated with the seed culture and were incubated at 35° C. and 300 rpm for 42 h in the incubator shaker. Samples of the culture were taken at various times and the optical density at 550 nm (OD550) was measured spectrophotometrically. The pH of these samples was also measured. After completion of the fermentation, the tyrosine and phenylalanine concentrations in the culture were measured using HPLC, as described supra.
This experiment was repeated using pHS in place of pHCA.

P. putida KT2440 = experiment: Effect of pHCA on the growth of Pseudomonas putida KT2440; conditions: pHCA 25 g/L
Procedure: as §1

[1] = adapted cells, LB medium, 30° C.
[2] = percentage of growth without pHCA

O=C(O)C=Cc1ccc(O)cc1 [pHCA, para-hydroxycinnamic acid]
Doubling Time (P. putida NCIMB 9866; [1]): 105 min
Growth Rate, % (P. putida NCIMB 9866; [2]): 18%
OD 550 (E. coli TY1 (DGL430); 17.5 h, pHCA added 1.00 g/L (as sodium pHCA)): 2.47 and 2.41
OD 550 (E. coli TY1 (DGL430); 17.5 h, pHCA added 2.00 g/L): 1.49 and 1.27
OD 550 (E. coli TY1 (DGL430); 17.5 h, pHCA added 4.00 g/L): 0.20 and 0.22
OD 550 (E. coli TY1 (DGL430); 17.5 h, pHCA added 8.00 g/L): 0.15
OD 550 (E. coli TY1 (DGL430); 17.5 h, pHCA added 16.00 g/L): 0.19 and 0.13
OD 550 (E. coli TY1 (DGL430); 29 h, pHCA added 1.00 g/L): 3.22 and 3.57
OD 550 (E. coli TY1 (DGL430); 29 h, pHCA added 2.00 g/L): 1.77 and 1.47
OD 550 (E. coli TY1 (DGL430); 29 h, pHCA added 4.00 g/L): 1.21 and 1.61
OD 550 (E. coli TY1 (DGL430); 29 h, pHCA added 8.00 g/L): 0.16
OD 550 (E. coli TY1 (DGL430); 29 h, pHCA added 16.00 g/L): 0.21 and 0.13
OD 550 (E. coli TY1 (DGL430); 42 h, pHCA added 1.00 g/L): 3.37 and 3.48
OD 550 (E. coli TY1 (DGL430); 42 h, pHCA added 2.00 g/L): 1.62 and 1.53
Phe (E. coli TY1 (DGL430); 42 h, pHCA added 2.00 g/L): 95 mg/L
Tyr (E. coli TY1 (DGL430); 42 h, pHCA added 2.00 g/L): 100 mg/L and 105 mg/L
OD 550 (E. coli TY1 (DGL430); 42 h, pHCA added 4.00 g/L): 1.54 and 1.55
Phe (E. coli TY1 (DGL430); 42 h, pHCA added 4.00 g/L): 15 mg/L and 20 mg/L
Tyr (E. coli TY1 (DGL430); 42 h, pHCA added 4.00 g/L): 65 mg/L and 75 mg/L
OD 550 (E. coli TY1 (DGL430); 42 h, pHCA added 8.00 g/L): 0.18 and 0.17
Phe (E. coli TY1 (DGL430); 42 h, pHCA added 8.00 g/L): 10 mg/L
Tyr (E. coli TY1 (DGL430); 42 h, pHCA added 8.00 g/L): 15 mg/L and 25 mg/L
OD 550 (E. coli TY1 (DGL430); 42 h, pHCA added 16.00 g/L): 0.23 and 0.14
Phe (E. coli TY1 (DGL430); 42 h, pHCA added 16.00 g/L): 5 mg/L
Tyr (E. coli TY1 (DGL430); 42 h, pHCA added 16.00 g/L): 0 mg/L
Phe (E. coli TY1 (DGL430); 42 h, phenylalanine in culture, pHCA added 1.00 g/L): 150 mg/L and 155 mg/L
Tyr (E. coli TY1 (DGL430); 42 h, tyrosine in culture, pHCA added 1.00 g/L): 210 mg/L and 190 mg/L
concentration at which complete inhibition of growth / no growth was observed (E. coli TY1 (DGL430); E. coli TY1 shake flask): 8 g/L
concentration that inhibited cell growth (E. coli TY1 (DGL430); E. coli TY1 shake flask): 1 g/L
Doubling Time (P. putida KT2440; [1]): 79 min
Growth Rate, % (P. putida KT2440; [2]): 21%
